In this assay the target is GzmB (Homo sapiens, UniProt P10144). In words: Inhibition of fibronectin cleavage by GzmB. The format is biochemical. As to conditions: 20 nM granzyme B, Hilyte Fluor 488 labeled fibronectin, 30° C. The protocol:
Black, 96 well high-binding assay plates (Griener Bio-one) were treated overnight at 4° C. with 40 uL of 8 ug/mL Hilyte Fluor 488 labeled Fibronectin (Cytoskeleton, Inc). After fibronectin coating, plates were washed 3 times in buffer (20 mM Tris-HCl, pH 7.4, 20 mM NaCl) then once with granzyme B assay buffer (50 mM HEPES, pH 7.5, 0.1% CHAPS). After washing, 50 uL of granzyme B assay buffer was added to each fibronectin-coated well. In a separate non-binding 96 well assay plate 5 uL of 20× inhibitor serial dilution stocks were added to 45 uL of 2.22×GzmB mix to establish inhibition (enzyme/inhibitor mixes were all prepared in granzyme B assay buffer and were incubated first at room temperature for 20 minutes, then at 30° C. for another 10 minutes). After incubation, 50 uL of this 2× enzyme/inhibitor mix was added to the corresponding coated well to initiate fibronectin cleavage (20 nM final granzyme B concentration, 8-point inhibitor dilution series starting at 50 uM). The assay was conducted at 30° C. in the TECAN plate reader (TECAN INFINITE® M1000 Pro), which was programmed to monitor the kinetic fluorescence polarization signal (filter set Ex/Em 470 nm/527 nm) with readings taken every minute, for 1 hour. Proteolytic activity was evaluated as the rate of fluorescence enhancement in the parallel emission over the linear range of the reaction. % Inhibition values were calculated from assay controls and the resulting date is shown in Table 2.

Chain of GzmB (P10144 21-247): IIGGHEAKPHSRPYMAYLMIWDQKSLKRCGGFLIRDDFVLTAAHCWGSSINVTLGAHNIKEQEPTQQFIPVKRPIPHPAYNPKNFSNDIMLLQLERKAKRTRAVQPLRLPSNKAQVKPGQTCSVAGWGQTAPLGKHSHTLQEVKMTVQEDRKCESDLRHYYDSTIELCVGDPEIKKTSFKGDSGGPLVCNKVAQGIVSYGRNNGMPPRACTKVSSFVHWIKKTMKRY

For the compound `CC[C@H](C)[C@H](NC(=O)CCC(=O)O)C(=O)NCC(=O)N1c2ccccc2C[C@H]1C(=O)NC(C=O)CC(=O)O` (stereo in doubt) [Compound C1, (S)-3-{[1-{2-[(2S,3S)-2-(3-carboxypropanamido)-3-methylpentanamido]acetyl}-2,3-dihydro-1H-indol-2-yl]formamido}-4-oxobutanoic acid], under “0.62 uM inhibitor, read-out: Percent Inhibition at Inhibitor Concentration 0.62 uM”, the inhibition at 0.62 µM turned out to be 60%. Also, the inhibition at 5.56 µM (5.56 uM inhibitor, read-out: Percent Inhibition at Inhibitor Concentration 5.56 uM) turned out to be 87%. Also, the inhibition at 50 µM (50 uM inhibitor, read-out: Percent Inhibition at Inhibitor Concentration 50 uM) came out at 95%.

These data come from US9458192B1, “Covalent granzyme B inhibitors” (viDA Therapeutics Inc., priority 2014, dated 2016).
